Reference: patent publication US10233184B2, “7-substituted sulfonimidoylpurinone compounds and derivatives for the treatment and prophylaxis of virus infection” (Hoffmann-La Roche Inc., priority 2016, dated 2019)
Converted amounts (≈) assume the structure as drawn. Like-named read-outs stand apart in the source and are kept apart here.

Tests used:
[1] = target: T1, human TLR7 (Homo sapiens, UniProt Q9NYK1); experiment: HEK293-Blue-hTLR-7 cells assay (SEAP reporter); assay type: cell-based; details: for EC50: HEK293-Blue-hTLR-7 cells, SEAP reporter, 20 hrs; for Ratio (EC50(prodrug)/EC50(active form)): EC50 of prodrug over EC50 of corresponding active form
T1 sequence (Q9NYK1 27-1049): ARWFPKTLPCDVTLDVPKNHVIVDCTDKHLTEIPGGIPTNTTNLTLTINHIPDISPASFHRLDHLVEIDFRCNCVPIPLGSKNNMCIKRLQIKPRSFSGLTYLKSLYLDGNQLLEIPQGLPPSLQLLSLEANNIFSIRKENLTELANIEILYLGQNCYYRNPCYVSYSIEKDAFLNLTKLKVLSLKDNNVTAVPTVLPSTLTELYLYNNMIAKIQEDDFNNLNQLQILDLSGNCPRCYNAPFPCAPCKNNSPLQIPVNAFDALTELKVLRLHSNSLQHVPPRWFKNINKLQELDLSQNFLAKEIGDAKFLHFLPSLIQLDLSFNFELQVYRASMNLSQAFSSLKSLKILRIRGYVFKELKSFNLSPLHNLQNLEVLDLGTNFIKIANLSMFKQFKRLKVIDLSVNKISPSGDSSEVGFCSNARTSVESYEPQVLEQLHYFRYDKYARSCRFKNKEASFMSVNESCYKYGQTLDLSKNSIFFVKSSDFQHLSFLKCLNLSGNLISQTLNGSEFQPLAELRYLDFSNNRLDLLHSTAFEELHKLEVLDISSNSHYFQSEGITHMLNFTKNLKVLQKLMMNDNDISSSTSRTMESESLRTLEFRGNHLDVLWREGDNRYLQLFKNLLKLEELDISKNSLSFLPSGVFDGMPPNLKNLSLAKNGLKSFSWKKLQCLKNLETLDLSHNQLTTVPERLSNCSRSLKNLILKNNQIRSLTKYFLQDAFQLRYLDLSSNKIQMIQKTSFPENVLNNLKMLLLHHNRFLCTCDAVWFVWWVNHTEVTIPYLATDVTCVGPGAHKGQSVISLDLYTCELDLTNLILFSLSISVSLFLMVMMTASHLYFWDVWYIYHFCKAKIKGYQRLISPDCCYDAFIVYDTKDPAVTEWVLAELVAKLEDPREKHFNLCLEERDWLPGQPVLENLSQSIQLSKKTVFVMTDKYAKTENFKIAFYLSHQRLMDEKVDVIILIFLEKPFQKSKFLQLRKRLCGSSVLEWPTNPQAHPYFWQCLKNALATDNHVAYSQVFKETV
Text: HEK293-Blue-hTLR-7 Cells Assay:
A stable HEK293-Blue-hTLR-7 cell line was purchased from InvivoGen (Cat.#: hkb-htlr7, San Diego, Calif., USA). These cells were designed for studying the stimulation of human TLR7 by monitoring the activation of NF-κB. A SEAP (secreted embryonic alkaline phosphatase) reporter gene was placed under the control of the IFN-β minimal promoter fused to five NF-κB and AP-1-binding sites. The SEAP was induced by activating NF-κB and AP-1 via stimulating HEK-Blue hTLR7 cells with TLR7 ligands. Therefore the reporter expression was regulated by the NF-κB promoter upon stimulation of human TLR7 for 20 hrs. The cell culture supernatant SEAP reporter activity was determined using QUANTI-Blue™ kit (Cat.#: rep-qbl, Invivogen, San Diego, Calif., USA) at a wavelength of 640 nm, a detection medium that turns purple or blue in the presence of alkaline phosphatase.
HEK293-Blue-hTLR7 cells were incubated at a density of 250,000˜450,000 cells/mL in a volume of 180 μL in a 96-well plate in Dulbecco's Modified Eagle's medium (DMEM) containing 4.5 g/L glucose, 50 U/mL penicillin, […], […], 2 mM L-glutamine, 10% (V/V) heat-inactivated fetal bovine serum for 24 hrs. Then the HEK293-Blue-hTLR-7 cells were incubated with addition of 20 μL test compound in a serial dilution in the presence of final DMSO at 1% and perform incubation under 37° C. in a CO2 incubator for 20 hrs. Then 20 μL of the supernatant from each well was incubated with 180 μL Quanti-blue substrate solution at 37° C. for 2 hrs and the absorbance was read at 620˜655 nm using a spectrophotometer. The signalling pathway that TLR7 activation leads to downstream NF-κB activation has been widely accepted, and therefore similar reporter assay was also widely used for evaluating TLR7 agonist (Tsuneyasu Kaisho and Takashi Tanaka, Trends in Immunology, Volume 29, Issue 7, July 2008, […]; Hiroaki Hemmi et al, Nature Immunology 3, 196-200 (2002)).
The Compounds and Examples of the present invention were tested in HEK293-hTLR-7 assay for their TLR7 agonism activity as described herein and results are listed in Table 1. […] The calculated ratio of EC50(prodrug)/EC50(active form) were within the range from 32 to about 7600.

[2] = LYSA solubility study; assay type: physicochemical; details: for solubility thermodynamic: phosphate buffer, pH 6.5, aqueous buffer, thermodynamic from solid; for LYSA of Prodrugs: aqueous solubility, 0.05M phosphate buffer pH 6.5
Protocol: LYSA study is used to determine the aqueous solubility of tested compounds. Samples were prepared in duplicate from 10 mM DMSO stock solution. After evaporation of DMSO with a centrifugal vacuum evaporator, the compounds were dissolved in 0.05M phosphate buffer (pH 6.5), stirred for one hour and shaken for two hours. After one night, the solutions were filtered using a microtiter filter plate. Then the filtrate and its 1/10 dilution were analyzed by HPLC-UV. […] The results were in μg/mL. In case the percentage of sample measured in solution after evaporation divided by the calculated maximum of sample amount was bigger than 80%, the solubility was reported as bigger than this value.

[3] = Single dose PK study in male Wister-Han rats; assay type: in vivo; details: male, Wister-Han, rat, plasma, po, 5 mg/kg, 5 mg/kg oral dosing of active form
Protocol: The single dose PK in Male Wister-Han Rats was performed to assess pharmacokinetic properties of tested compounds. Two groups of animals were dosed via Gavage (POE) of the respective compound. […] Blood samples were placed into tubes containing EDTA-K2 anticoagulant and centrifuged at 5000 rpm for 6 min at 4° C. to separate plasma from the samples. After centrifugation, the resulting plasma was transferred to clean tubes for bioanalysis of both prodrug and active form on LC/MS/MS. In the groups that prodrug were dosed, the concentration of prodrugs in the plasma samples was under the detection limit. The “tested compound” in Table 8 was used as the internal standard for testing the metabolite (active form) of “dose compound” in vivo. The pharmacokinetic parameters were calculated using non-compartmental module of WinNonlin® Professional 6.2. The peak concentration (Cmax) was recorded directly from experimental observations. The area under the plasma concentration-time curve (AUC0-t) was calculated using the linear trapezoidal rule up to the last detectable concentration. Cmax and AUC0-last are two critical PK parameters related to the in vivo efficacy of the tested compound. Compounds with higher Cmax and AUC0-last will lead to the better in vivo efficacy.

[4] = prodrug, read-out: HEK293-hTLR-7 EC50 (Prodrug)
[5] = 0.05M phosphate buffer pH 6.5, read-out: LYSA of Prodrugs

| Ratio (EC50(prodrug)/EC50(active form)) [1] | EC50 [1, 4] [µM] | solubility thermodynamic [2, 5] [µg/mL] | LYSA of Prodrugs [2] [µg/mL] | SMILES | other results |
| --- | --- | --- | --- | --- | --- |
| 2240 | 78.4 | 170 (≈ 382 µM) | – | CCCN(C)C(=O)n1c(=O)n(Cc2ccc(C)cc2)c2nc([S@@](=N)(=O)CC)nc(N)c21 (single isomer, unassigned) [Example 43-B] | – |
| – | 153 | > 560 | – | CCCN(C)C(=O)n1c(=O)n(Cc2ccc(F)cc2)c2nc(S(=N)(=O)CC)nc(N)c21 (single isomer, unassigned) [Example 45-A] | – |
| – | > 1000 | 420 (≈ 934 µM) | – | CCCN(C)C(=O)n1c(=O)n(Cc2ccc(F)cc2)c2nc([S@@](=N)(=O)CC)nc(N)c21 (single isomer, unassigned) [Example 45-B] | – |
| – | 45.5 | – | 205 | CCN(C)C(=O)n1c(=O)n(Cc2ccc(F)cc2)c2nc(S(=N)(=O)CC)nc(N)c21 (single isomer, unassigned) [Example 46-A] | – |
| – | 45.7 | – | >580 | CCN(C)C(=O)n1c(=O)n(Cc2ccc(F)cc2)c2nc(S(=N)(=O)CC)nc(N)c21 (single isomer, unassigned) [Example 46-B] | – |
| – | 13.1 | 128 (≈ 251 µM) | – | CCCN(C)C(=O)n1c(=O)n(Cc2ccc(Br)cc2)c2nc([S@@](=N)(=O)CC)nc(N)c21 (single isomer, unassigned) [Example 47-B] | – |
| – | 20.8 | – | 275 | CCN(C)C(=O)n1c(=O)n(Cc2ccc(Br)cc2)c2nc(S(=N)(=O)CC)nc(N)c21 (single isomer, unassigned) [Example 48-B] | – |
| – | – | – | 209 | CCCN(C)C(=O)n1c(=O)n(Cc2ccc(C)cc2)c2nc([S@@](=N)(=O)CCC)nc(N)c21 (stereo in doubt) [Example 36-B, 6-amino-N-methyl-8-oxo-N-propyl-2[S(R)-propylsulfonimidoyl]-9-(p-tolylmethyl)purine-7-carboxamide] | – |
| – | – | 172 (≈ 383 µM) | – | CCCN(C)C(=O)n1c(=O)n(Cc2ccc(F)cc2)c2nc(S(=N)(=O)CC)nc(N)c21 (stereo not drawn) [Example 45, 6-amino-2-(ethylsulfonimidoyl)-9-[(4-fluorophenyl)methyl]-N-methyl-8-oxo-N-propyl-purine-7-carboxamide] | – |

The next lines start with the compound.

| SMILES | Ratio (EC50(prodrug)/EC50(active form)) [1] | EC50 [1, 4] [µM] | solubility thermodynamic [2, 5] [µg/mL] | LYSA of Prodrugs [2] [µg/mL] | other results |
| --- | --- | --- | --- | --- | --- |
| CC[S@](=N)(=O)c1nc(N)c2[nH]c(=O)n(Cc3ccc(C)cc3)c2n1 (single isomer, unassigned) [Compound 43e-B] | – | – | – | – | EC50 ([1]; active form, read-out: HEK293-hTLR-7 EC50 (Active form)): 0.035 µM; solubility thermodynamic ([2]; 0.05M phosphate buffer pH 6.5, read-out: LYSA of Active Forms): 13 µg/mL (≈ 37.5 µM) |
| CCCN(C)C(=O)n1c(=O)n(Cc2ccccc2)c2nc(S(=N)(=O)CCC)nc(N)c21 (single isomer, unassigned) [Example 1-A] | 634.3 | 42.5 | 315 (≈ 707 µM) | – | – |
| CCCS(=N)(=O)c1nc(N)c2c(n1)n(Cc1ccccc1)c(=O)n2C(=O)N(C)CCOC (single isomer, unassigned) [Example 2-A] | 43.0 | 3.7 | > 600 | – | – |
| CCCS(=N)(=O)c1nc(N)c2c(n1)n(Cc1ccccc1)c(=O)n2C(=O)N(C)CCOC (single isomer, unassigned) [Example 2-B] | 65.7 | 4.4 | – | >590 | – |
| CCN(C)C(=O)n1c(=O)n(Cc2ccc(Br)cc2)c2nc(S(=N)(=O)CC)nc(N)c21 (single isomer, unassigned) [Example 48-A] | – | 18.3 | 305 (≈ 614 µM) | – | – |
| CCN(C)C(=O)n1c(=O)n(Cc2ccc(Cl)cc2)c2nc([S@@](=N)(=O)CC)nc(N)c21 (stereo in doubt) [Example 42-B, 6-Amino-9-[(4-chlorophenyl)methyl]-N-ethyl-2-[S(R)-ethylsulfonimidoyl]-N-methyl-8-oxo-purine-7-carboxamide] | 578.8 | 49.2 | – | 335 | – |
| CCCN(C)C(=O)n1c(=O)n(Cc2ccccc2)c2nc(S(=N)(=O)CCC)nc(N)c21 (stereo not drawn) [Example 1, 6-Amino-9-benzyl-N-methyl-8-oxo-N-propyl-2-(propylsulfonimidoyl)purine-7-carboxamide] | 775.4 | 50.4 | 290 (≈ 651 µM) | – | – |
| CCCS(=N)(=O)c1nc(N)c2c(n1)n(Cc1ccccc1)c(=O)n2C(=O)N(C)[C@@H](C)C(=O)OCC (stereo partly drawn) [Example 17, Ethyl(2S)-2-[[6-amino-9-benzyl-8-oxo-2-(propylsulfonimidoyl)purine-7-carbonyl]-methyl-amino]propanoate] | – | – | 190 (≈ 377 µM) | – | – |
| CCS(=O)(=O)c1nc(N)c2[nH]c(=O)n(Cc3ccc(C)cc3)c2n1 [Example S-3, reference compound] | – | – | – | – | AUC(0-t) [3]: 0.095 µM·h; Cmax [3]: 11.5 nM; concentration at 0.25 h ([3]; 0.25 h): 8.89 nM; concentration at 0.5 h ([3]; 0.5 h): 9.99 nM; concentration at 1 h ([3]; 1 h): 10.2 nM; concentration at 2 h ([3]; 2 h): 8.4 nM; concentration at 4 h ([3]; 4 h): 11.5 nM; concentration at 8 h ([3]; 8 h): 8.17 nM |
